Measurements: paper PMC10122081 (European Journal of Drug Metabolism and Pharmacokinetics, 2023)
Several values for one entry are separate records, joined by “and”; a condition that tells them apart may be missing. Equal entries are not always repeated.

What was measured:
CYP2B6 = molecular target: T1, CYP2B6 (Homo sapiens, UniProt P20813); assay: CYP phenotyping; details: CYP2B6 bactosomes, 1 µM DMT fumarate
T1 sequence (P20813 1-491): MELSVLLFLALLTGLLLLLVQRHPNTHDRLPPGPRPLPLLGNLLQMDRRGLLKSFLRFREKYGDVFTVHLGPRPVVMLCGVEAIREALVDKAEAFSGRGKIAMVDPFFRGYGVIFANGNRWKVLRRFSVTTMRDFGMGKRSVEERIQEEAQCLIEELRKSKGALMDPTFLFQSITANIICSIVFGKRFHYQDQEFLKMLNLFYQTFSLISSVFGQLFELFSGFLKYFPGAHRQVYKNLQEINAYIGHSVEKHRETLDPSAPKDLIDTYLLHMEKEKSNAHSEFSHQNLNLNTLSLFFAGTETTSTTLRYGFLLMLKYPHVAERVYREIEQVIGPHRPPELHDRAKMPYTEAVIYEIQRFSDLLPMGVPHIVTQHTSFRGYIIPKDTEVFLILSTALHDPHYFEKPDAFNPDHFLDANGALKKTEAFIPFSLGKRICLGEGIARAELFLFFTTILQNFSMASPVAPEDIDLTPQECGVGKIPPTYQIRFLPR

[1] = bolus IV administration, healthy volunteers; cited from earlier work
CYP2D6 = CYP2D6 (Homo sapiens, UniProt P10635); assay: CYP phenotyping; details: CYP2D6 bactosomes, 1 µM DMT fumarate
CYP3A4 = CYP3A4 (Homo sapiens, UniProt P08684); assay: CYP phenotyping; details: CYP3A4 bactosomes, 1 µM DMT fumarate
Plasma protein binding = details: plasma protein binding result
healthy subjects = assay: Phase I clinical safety and tolerability; format: in vivo, human; details: all four doses, 9–21.5 mg IV
CYP2C8 = molecular target: T2, CYP2C8 (Homo sapiens, UniProt P10632); assay: CYP phenotyping; details: CYP2C8 bactosomes, 1 µM DMT fumarate
T2 sequence (P10632 1-490): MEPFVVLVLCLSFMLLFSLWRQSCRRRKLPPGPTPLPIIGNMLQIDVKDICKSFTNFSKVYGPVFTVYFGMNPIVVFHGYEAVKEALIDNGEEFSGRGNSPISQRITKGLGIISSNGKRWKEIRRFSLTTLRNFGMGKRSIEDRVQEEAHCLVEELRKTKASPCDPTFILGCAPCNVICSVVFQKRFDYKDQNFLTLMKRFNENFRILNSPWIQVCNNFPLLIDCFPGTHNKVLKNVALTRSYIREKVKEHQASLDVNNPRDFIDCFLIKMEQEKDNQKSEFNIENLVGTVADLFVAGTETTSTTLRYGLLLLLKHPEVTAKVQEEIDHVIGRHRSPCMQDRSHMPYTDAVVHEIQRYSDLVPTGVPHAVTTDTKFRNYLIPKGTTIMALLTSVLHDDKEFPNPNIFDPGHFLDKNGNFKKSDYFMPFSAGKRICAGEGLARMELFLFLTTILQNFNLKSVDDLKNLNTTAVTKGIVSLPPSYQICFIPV

physchem = format: physicochemical; details: pH 7.4
MAO-A = assay: Metabolic stability in human liver mitochondrial fraction; format: in vitro ADME; details: both, liver mitochondrial fractions, with clorgyline 100 nM
CYP2C19 = CYP2C19 (Homo sapiens, UniProt P33261); assay: CYP phenotyping; details: CYP2C19 bactosomes, 1 µM DMT fumarate
[2] = format: in vivo, human
Blood:plasma ratio = format: in vitro ADME; details: human, fresh whole blood and plasma
CYP2C9 = CYP2C9 (Homo sapiens, UniProt P11712); assay: CYP phenotyping; details: CYP2C9 bactosomes, 1 µM DMT fumarate
CYP1A2 = molecular target: T3, CYP1A2 (Homo sapiens, UniProt P05177); assay: CYP phenotyping; details: CYP1A2 bactosomes, 1 µM DMT fumarate
T3 sequence (P05177 1-516): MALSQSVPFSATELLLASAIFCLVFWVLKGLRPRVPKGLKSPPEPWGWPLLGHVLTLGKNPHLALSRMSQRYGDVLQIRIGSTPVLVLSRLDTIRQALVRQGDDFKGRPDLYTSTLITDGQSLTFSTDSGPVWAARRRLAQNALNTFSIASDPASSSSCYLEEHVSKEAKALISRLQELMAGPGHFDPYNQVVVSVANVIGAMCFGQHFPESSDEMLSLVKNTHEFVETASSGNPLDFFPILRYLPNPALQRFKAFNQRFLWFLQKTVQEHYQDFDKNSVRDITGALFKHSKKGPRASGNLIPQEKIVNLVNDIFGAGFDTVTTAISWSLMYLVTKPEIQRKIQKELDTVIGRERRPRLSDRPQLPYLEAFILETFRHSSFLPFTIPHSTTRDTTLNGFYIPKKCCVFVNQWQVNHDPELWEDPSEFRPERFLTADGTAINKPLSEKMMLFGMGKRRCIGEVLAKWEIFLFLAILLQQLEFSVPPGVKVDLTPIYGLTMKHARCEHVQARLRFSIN

CYP3A5 = CYP3A5 (Homo sapiens, UniProt P20815); assay: CYP phenotyping; details: CYP3A5 bactosomes, 1 µM DMT fumarate
CYP3A5, sequence (P20815 whole entry): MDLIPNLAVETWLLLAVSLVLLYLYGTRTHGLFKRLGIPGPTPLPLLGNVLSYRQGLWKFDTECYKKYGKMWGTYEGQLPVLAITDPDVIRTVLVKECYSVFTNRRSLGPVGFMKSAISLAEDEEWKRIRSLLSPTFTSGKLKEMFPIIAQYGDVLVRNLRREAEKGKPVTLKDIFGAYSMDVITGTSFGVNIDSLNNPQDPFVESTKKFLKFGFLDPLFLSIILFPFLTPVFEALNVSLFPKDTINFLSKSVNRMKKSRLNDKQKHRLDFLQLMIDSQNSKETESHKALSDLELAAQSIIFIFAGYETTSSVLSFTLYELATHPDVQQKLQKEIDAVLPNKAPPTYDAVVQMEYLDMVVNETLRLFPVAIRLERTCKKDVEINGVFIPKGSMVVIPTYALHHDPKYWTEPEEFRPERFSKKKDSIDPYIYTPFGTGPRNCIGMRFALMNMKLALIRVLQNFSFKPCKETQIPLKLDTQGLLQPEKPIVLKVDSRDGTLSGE

CYP2C19, sequence (P33261 whole entry): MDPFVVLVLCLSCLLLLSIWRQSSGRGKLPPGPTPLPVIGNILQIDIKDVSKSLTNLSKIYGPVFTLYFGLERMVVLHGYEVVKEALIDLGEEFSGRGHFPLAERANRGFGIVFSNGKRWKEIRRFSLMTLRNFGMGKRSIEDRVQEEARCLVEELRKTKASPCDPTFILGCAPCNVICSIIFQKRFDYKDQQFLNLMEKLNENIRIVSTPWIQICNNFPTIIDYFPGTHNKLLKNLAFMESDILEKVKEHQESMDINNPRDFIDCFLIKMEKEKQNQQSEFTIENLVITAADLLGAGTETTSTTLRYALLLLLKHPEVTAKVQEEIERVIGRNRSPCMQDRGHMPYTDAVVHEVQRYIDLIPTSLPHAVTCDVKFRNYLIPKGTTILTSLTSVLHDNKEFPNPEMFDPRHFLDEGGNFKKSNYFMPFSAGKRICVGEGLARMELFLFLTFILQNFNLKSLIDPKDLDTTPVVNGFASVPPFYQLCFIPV
CYP3A4, sequence (P08684 whole entry): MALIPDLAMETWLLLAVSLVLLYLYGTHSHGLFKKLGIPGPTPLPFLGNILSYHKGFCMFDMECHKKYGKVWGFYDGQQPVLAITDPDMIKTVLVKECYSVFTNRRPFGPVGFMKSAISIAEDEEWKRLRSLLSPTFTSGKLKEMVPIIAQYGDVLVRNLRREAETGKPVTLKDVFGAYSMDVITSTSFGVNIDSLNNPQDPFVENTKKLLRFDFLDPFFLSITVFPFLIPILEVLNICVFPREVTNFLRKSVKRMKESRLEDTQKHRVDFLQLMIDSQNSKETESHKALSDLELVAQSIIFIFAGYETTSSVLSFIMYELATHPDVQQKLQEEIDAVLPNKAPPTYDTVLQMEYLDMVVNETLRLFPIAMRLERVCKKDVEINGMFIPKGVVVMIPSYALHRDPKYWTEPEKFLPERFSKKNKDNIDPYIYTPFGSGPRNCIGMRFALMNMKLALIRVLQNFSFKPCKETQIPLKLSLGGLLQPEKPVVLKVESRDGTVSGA
CYP2D6, sequence (P10635 whole entry): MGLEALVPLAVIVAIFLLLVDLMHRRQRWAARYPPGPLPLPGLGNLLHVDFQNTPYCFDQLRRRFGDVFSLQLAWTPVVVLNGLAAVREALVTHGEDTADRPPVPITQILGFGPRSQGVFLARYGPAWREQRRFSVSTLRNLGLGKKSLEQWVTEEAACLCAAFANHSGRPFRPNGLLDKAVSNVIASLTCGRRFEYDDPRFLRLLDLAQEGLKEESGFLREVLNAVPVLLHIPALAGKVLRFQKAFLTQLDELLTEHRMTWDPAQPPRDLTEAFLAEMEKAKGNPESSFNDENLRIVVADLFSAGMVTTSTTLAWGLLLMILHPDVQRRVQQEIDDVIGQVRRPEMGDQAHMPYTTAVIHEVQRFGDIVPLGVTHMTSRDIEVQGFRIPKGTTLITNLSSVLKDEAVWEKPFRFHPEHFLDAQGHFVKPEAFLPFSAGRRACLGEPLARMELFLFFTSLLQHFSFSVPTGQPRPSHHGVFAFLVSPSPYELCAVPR
CYP2C9, sequence (P11712 whole entry): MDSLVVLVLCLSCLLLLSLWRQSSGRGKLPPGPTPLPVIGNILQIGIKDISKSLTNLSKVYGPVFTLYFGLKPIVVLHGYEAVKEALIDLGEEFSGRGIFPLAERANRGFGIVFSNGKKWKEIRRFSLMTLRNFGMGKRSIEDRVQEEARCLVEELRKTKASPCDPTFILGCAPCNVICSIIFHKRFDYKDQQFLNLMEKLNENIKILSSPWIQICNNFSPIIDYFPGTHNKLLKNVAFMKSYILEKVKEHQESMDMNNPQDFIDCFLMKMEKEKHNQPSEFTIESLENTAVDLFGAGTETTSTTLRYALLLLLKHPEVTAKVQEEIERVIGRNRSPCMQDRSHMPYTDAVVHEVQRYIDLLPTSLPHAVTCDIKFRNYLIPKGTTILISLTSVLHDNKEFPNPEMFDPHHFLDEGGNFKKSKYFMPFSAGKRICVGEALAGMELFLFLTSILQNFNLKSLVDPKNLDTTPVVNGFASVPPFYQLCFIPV

Q: What does the source list for CN(C)CCc1c[nH]c2ccccc12 [DMT, N,N-dimethyltryptamine]?
A: Intrinsic clearance (no turnover detected) (CYP2B6): < 29 µl/min/nmol CYP; Time to peak blood concentrations [1]: approximately 2 min; Intrinsic clearance (CYP2D6): 801 µl/min/nmol CYP; Intrinsic clearance (no turnover detected) (CYP3A4): < 29 µl/min/nmol CYP; Unbound in human plasma (Plasma protein binding): > 65% and 67.7%; Safety and tolerability (healthy subjects): safe and well tolerated; Serious adverse events (healthy subjects): no serious AEs; Intrinsic clearance (no turnover detected) (CYP2C8): < 29 µl/min/nmol CYP; logD (physchem): 0.15; microsomal CLint at 3.1 µM (MAO-A): < 3.9 µL/min/mg; Intrinsic clearance (CYP2C19): 37 µl/min/nmol CYP; Mean measured concentrations of DMT at the 120 min and 240 min time points ([2]; all cohorts): < 0.1 ng/mL; concentration at 5 min ([2]; human, plasma, intravenous, 6 mg, Individual C5min, following a 6 mg dose over 5 min, across all dose cohorts): 3.32 to 43 ng/mL; half-life ([2]; human, plasma, iv, Mean elimination half-life (plasma), all doses, 9–21.5 mg IV 10-min infusion): 10 to 12 min; blood plasma ratio at 30 min, 1 µM (Blood:plasma ratio): 1.53; Intrinsic clearance (no turnover detected) (CYP2C9): < 29 µl/min/nmol CYP; Intrinsic clearance (no turnover detected) (CYP1A2): < 29 µl/min/nmol CYP; Intrinsic clearance (no turnover detected) (CYP3A5): < 29 µl/min/nmol CYP
